Test results published in US10059956B2, “Glycosyltransferase gene and use thereof” (SUNTORY HOLDINGS LIMITED, priority 2012, dated 2018).

Tested on: NmGT8 protein
Assay: Enzyme reaction of flavone substrates with His-tag purified NmGT8 protein solution and UDP-glucose (HPLC)
Type: biochemical, Nemophila menziesii
Conditions: NmGT8 protein solution, UDP-glucose, 1 mM substrate stock, 20 minutes at 30° C., HPLC 330 nm
Protocol: The transformed E. coli were cultured at 37° C. to an OD600 value of 0.5 in 8 ml of the prepared culture liquid (approx. 4 hours). This E. coli culture liquid was then used as a pre-culture liquid and added to 200 ml of culture liquid followed by final culturing overnight at 25° C.
Following final culturing overnight, the E. coli culture liquid was centrifuged (1000×g, 4° C., 10 minutes), the collected cells were suspended in 20 ml of extract (composition: buffer (KCl: 300 mM, KH2PO4: 50 mM, imidazole: 5 mm) (pH 8.0), amidinophenylmethanesulfonyl fluoride hydrochloride (APMSF): 10 μM), and after crushing the E. coli by ultrasonic treatment, the crushed cells were centrifuged (1400×g, 4° C., 20 minutes) followed by recovery of the supernatant. This supernatant was passed through a 0.45 μm filter and purified by His-Tag protein purification using Profinia (Bio-Rad Laboratories, Inc.) in accordance with the protocol recommended by the manufacturer. The resulting purified protein solution was centrifuged (7500×g, 4° C., 15 minutes) using centrifugal filters (Ultracel-10K, Amicon Corp.) and the concentrated protein solution was designated as “NmGT8 Protein Solution”. The Avanti HP-26XP (rotor: JA-2) (Beckman Coulter Inc.) was used for centrifugation.
A reaction liquid prepared by mixing 10 μl of protein solution, 2 μl of 50 mM UDP-glucose, 10 μl of 1 M Tris HCl (pH 7.5) and 5 μl of 1 mM apigenin on ice and bringing to a volume of 100 μl with water was held for 20 minutes at 30° C. Subsequently, 100 μl of stop buffer (90% aqueous acetonitrile solution containing 0.1% TFA) were added to stop the reaction followed by analyzing the reaction liquid by high-performance liquid chromatography (Prominence (Shimadzu Corp.)). The Shimadzu PDA SPD-M10AVP was used for the detector and flavone was detected at 330 nm. The Shim-Pack ODS 150 mm×4.6 mm column (Shimadzu Corp.) was used for the column. A Solution A (0.1% aqueous TFA solution) and a Solution B (90% aqueous methanol solution containing 0.1% TFA) were used for elution. Elution was carried out using a linear concentration gradient from an 8:2 mixture of the two solutions to a 3:7 mixture of the two solutions over the course of 10 minutes followed by a 3:7 mixture for 6 minutes. The flow rate was 0.6 ml/min.

Compound | glycosylation product biosynthesized from the substrate
O=c1cc(-c2ccc(O)cc2)oc2cc(O)cc(O)c12 [apigenin, 4′,5,7-trihydroxyflavone] | flavone demonstrating the same retention time and absorption maximum as purified apigenin 4′-glucoside was biosynthesized
O=c1cc(-c2ccc(O)c(O)c2)oc2cc(O)cc(O)c12 [luteolin, 3′,4′,5,7-tetrahydroxyflavone] | Luteolin 4′-glucoside was biosynthesized
O=c1cc(-c2ccc(O)cc2)oc2cc(O[C@@H]3O[C@H](CO)[C@@H](O)[C@H](O)[C@H]3O)cc(O)c12 [apigenin 7-glucoside] | apigenin 4′,7-diglucoside was not biosynthesized
O=c1cc(-c2ccc(O)c(O)c2)oc2cc(O[C@@H]3O[C@H](CO)[C@@H](O)[C@H](O)[C@H]3O)cc(O)c12 [luteolin 7-glucoside] | luteolin 4′,7-diglucoside was also not biosynthesized
